We go through one compound from PMC6934184, “Selective DNA-PKcs inhibition extends the therapeutic index of localized radiotherapy and chemotherapy” (The Journal of Clinical Investigation, 2019).

As a reminder, the inhibition is the percentage by which the read-out fell short of the control. Lower therefore signals a response near the control.

This assay addresses T1, AKT1 (PKB alpha) (Homo sapiens, UniProt P31749).
T1 construct: purchased Thermo Fisher Scientific (Life Technologies) SelectScreen
The assay is described as follows: SelectScreen Z'LYTE. The class given is biochemical. The method in brief: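 Compound tested in SelectScreen activity assays, Z'LYTE for CSF1R, CDK1/cyclin B and MAP2K6 and Adapta for CAMK1. ATP for CAMK1 was listed as 10, and Km app was used for CSF1R. Results are expressed in percent.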

The structures appear in SMILES notation.

T1 sequence (P31749 whole entry): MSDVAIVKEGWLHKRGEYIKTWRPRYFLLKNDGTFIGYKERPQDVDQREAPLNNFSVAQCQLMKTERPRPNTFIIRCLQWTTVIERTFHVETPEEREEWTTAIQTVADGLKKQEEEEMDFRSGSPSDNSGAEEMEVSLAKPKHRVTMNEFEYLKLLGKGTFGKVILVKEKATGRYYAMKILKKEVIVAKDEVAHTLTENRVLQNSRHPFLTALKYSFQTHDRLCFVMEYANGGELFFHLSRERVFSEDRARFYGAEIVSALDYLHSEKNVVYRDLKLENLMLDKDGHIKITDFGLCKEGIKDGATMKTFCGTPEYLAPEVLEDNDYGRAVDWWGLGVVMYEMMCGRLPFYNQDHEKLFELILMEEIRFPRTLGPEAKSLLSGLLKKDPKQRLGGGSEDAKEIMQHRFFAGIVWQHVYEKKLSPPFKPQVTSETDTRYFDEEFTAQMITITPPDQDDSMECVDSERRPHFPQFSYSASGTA

For the compound `CN(C(=O)CN1CCOCC1)c1ccc2sc3c(-c4cccc5c(=O)cc(N6CC7CCC(C6)O7)oc45)cccc3c2c1` [NU5455], the inhibition at 1 µM is 0.5%.
